Results: patent US12558312B2, “Solid dosage form for transmucosal drug delivery” (Primo Pharmatech LLC, priority 2020, dated 2026)
Counter-ions that a name gives are not always drawn.

Test: In-vitro permeation testing with a Franz Cell Diffusion System
Procedure: In-vitro Permeation testing was performed for the dosage forms in Table 8 with a Franz Cell Diffusion System. The receiving chamber was filled in water solution and stirred with magnetic bar. Fix the PermeaPad® Barrier membrane at the surface. The PermeaPad® Barrier consists of two cellulose membranes and in between there is a Lipid layer Lecithine (S-100). Place the donating chamber onto the receiving chamber and effectively sandwich the membrane. Add 5 mg of the film prepared in Table 8 into the donating chamber and introduce 1 ml of water to dissolve the film. Start the timer for the experiment.
Permeability (P, cm/h), in general within first 8 hours, is defined as the rate of flow of liquid through the membrane.
The similar procedure was performed for the other APIs with a molecule weight ranging from 100 to 6000 g/mol.

Compound | Pemeability (cm/h) via PermeaPad Biomimetic Membrane in vitro (enhancer condition not stated) | Pemeability (cm/h) via PermeaPad Biomimetic Membrane in vitro (HLB9.0) | Pemeability (cm/h) via PermeaPad Biomimetic Membrane in vitro (HLB15) [cm/h] | Pemeability (cm/h) via PermeaPad Biomimetic Membrane in vitro (no enhancers) | Pemeability (cm/h) via PermeaPad Biomimetic Membrane in vitro (HLB9.4) | Pemeability (cm/h) via PermeaPad Biomimetic Membrane in vitro (HLB4.3)
Insulin | Un-detectable |  |  |  |  | 
CC[C@H](C)[C@H](NC(=O)[C@H](CCC(=O)O)NC(=O)[C@H](CCC(=O)O)NC(=O)[C@H](Cc1ccccc1)NC(=O)[C@H](CC(=O)O)NC(=O)CNC(=O)[C@H](CC(N)=O)NC(=O)CNC(=O)CNC(=O)CNC(=O)CNC(=O)[C@@H]1CCCN1C(=O)[C@H](CCCNC(=N)N)NC(=O)[C@@H]1CCCN1C(=O)[C@H](N)Cc1ccccc1)C(=O)N1CCC[C@H]1C(=O)N[C@@H](CCC(=O)O)C(=O)N[C@@H](CCC(=O)O)C(=O)N[C@@H](Cc1ccc(O)cc1)C(=O)N[C@@H](CC(C)C)C(=O)O [Bivalirudin Peptide, Bivalirudin] | Un-detectable |  |  |  |  | 
CN1CCc2cccc3c2[C@H]1Cc1ccc(O)c(O)c1-3 [Apomorphine HCL] |  | (HLB15), 2.73 (HLB9.0) cm/h | 1.87 | 0.413 cm/h |  | 
Cn1c(=O)c2c(ncn2C)n(C)c1=O [Caffeine] |  |  | 5.01 | 0.277 cm/h | (HLB15), 7.76 (HLB9.4) cm/h | 
NC(=O)c1ccc[n+]([C@@H]2O[C@H](COP(=O)([O-])O)[C@@H](O)[C@H]2O)c1 [Beta-nicotinamide mononucleotide, NMN, Beta-nicotinamide mononucleotide] |  |  |  | 0.23 (No enhancers), cm/h | 0.38 (HLB9.4) cm/h | 0.23 (HLB4.3), cm/h
